Measured values as given in patent US6013283A (priority 1997, dated 2000).

Experiment: Water solubility (dissolution in water)
Procedure: Stability of this compound was determined by dissolving small amounts in water, pH 7.8 phosphate buffer and methanol.
The stability of the product is determined by dissolving in deionized water and pH 7.26 phosphate buffer.

## Nc1c2c(nc3ccccc13)CCCC2 [Tacrine, tacrine]
  WATER SOLUBILITY (in words): Insoluble
